Patent US20240366625A1, “COMPOSITIONS CONTAINING AND THERAPIES USING BEMPEDOIC ACID AND TOLVAPTAN” (Esperion Therapeutics, Inc., priority 2021, published 2024)

What was measured:
[1] = system: proximal tubule (PT)-derived Pkd1−/− kidney epithelial cells; experiment: Cyst growth of PT-derived Pkd1−/− kidney epithelial cells in 3D cultures (Matrigel); format: cell-based, mouse; conditions: 10 μM forskolin+100 μM IBMX, vs vehicle (DMSO)
Method: The example describes cell growth inhibition studies in 3D cultures of kidney epithelial cells using either of ACLY inhibitors bempedoic acid or SB-204990. […] Cells were grown in Matrigel 12 days and treated with 10 μM forskolin+100 μM IBMX for 11 days, and then treated with either vehicle (DMSO; CON), 500 μM metformin, 100 μM ETC-1002 (bempedoic acid) or 30 μM SB-204990 either alone or in combination as shown for the last 3 days (FIG. 2A). […] Error bars indicate 95% confidence interval (CI) (*P<0.05, **P<0.01, ***P<0.001 for the indicated comparisons by one-way ANOVA and Tukey's multiple comparison test) (FIG. 2B).

[2] = system: inner medullary collecting duct (IMCD)-derived Pkd1−/− kidney epithelial cells; experiment: Cyst growth of IMCD-derived Pkd1−/− kidney epithelial cells in 3D cultures (Matrigel); format: cell-based, mouse; conditions: 10 μM forskolin+100 μM IBMX
Method: ETC-1002 inhibited cyst growth of inner medullary collecting duct (IMCD)-derived Pkd1−/− kidney epithelial cells in 3D cultures. Cells were grown in Matrigel for 6 days and treated with 10 μM forskolin+100 μM IBMX±500 μM metformin and/or 100 μM of ETC-1002 (bempedoic acid) for the last 3 days alone or in combination as shown (FIG. 2C). […] Error bars indicate 95% CI (*P<0.05, **P<0.01, ***P<0.001 for the indicated comparisons by one-way ANOVA and Tukey's multiple comparison test) (FIG. 2D).

[3] = system: early onset, rapidly developing ADPKD mouse model Pkd1fl/fl;Pax8-rtTA;Tet-O-Cre; experiment: Early onset, rapidly developing ADPKD mouse model: kidney size, kidney weight to body weight, BUN; format: in vivo; conditions: for BUN: vehicle 107±14; for kidney size (H&E stains of kidney sections) compared to vehicle control: oral gavage daily P12-P21, P22
Method: The example describes characterization of the early onset, rapidly developing ADPKD mouse model Pkd1fl/fl;Pax8-rtTA;Tet-O-Cre homozygous in the C57BL/6 background.
(§1) Doxycycline was administered intraperitoneally (50 mg/kg/day) on postnatal days 10 and 11 (P10 and P11) to induce Pkd1 deletion and rapidly progressive PKD in the Cre+ mice. Mice were treated with the various drugs and combinations or vehicle by oral gavage daily from P12-P21 and were then sacrificed at P22 of age to harvest kidneys for histology, weight measurements and blood urea nitrogen (BUN) measurements. Treatments were vehicle, tolvaptan 30 mg/kg/d, tolvaptan 100 mg/kg/d, bempedoic acid 30 mg/kg/d, tolvaptan 30 mg/kg/d+bempedoic acid 30 mg/kg/d, and tolvaptan 100 mg/kg/d+bempedoic acid 30 mg/kg/d; also included was an uninduced, untreated group without PKD. Each treatment group consisted of 3-6 mice.

[4] = system: phosphorylated ACLY; experiment: Immunoblot of kidney lysates, early onset ADPKD mice: pACLY; format: in vivo, mouse; conditions: bempedoic acid 30 mg/kg/d alone or in combination with tolvaptan; P22
Method: as §1
(§2) At the end of the study, kidney sample lysates were prepared in buffer and separated using SDS-PAGE. Separated proteins were then electrophoretically transferred to membranes. Nonspecific binding was blocked, and membranes were probed with antibodies against phosphorylated (Thr172)-AMPK, phosphorylated P70S6K, phosphorylated ERK, phosphorylated ACLY, total KIM-1, and total neutrophil gelatinase-associated lipocalin (NGAL). Membranes were incubated with appropriate detection antibodies and relative signal intensity determined. Protein levels were normalized to total protein levels. […] These effects of bempedoic acid occurred both alone and in combination with tolvaptan therapy.

[5] = system: phosphorylated (Thr172)-AMPK; experiment: Immunoblot of kidney lysates, early onset ADPKD mice: pAMPK; format: in vivo, mouse; conditions: bempedoic acid 30 mg/kg/d alone or in combination with tolvaptan; P22
Method: as §1, §2

[6] = system: phosphorylated P70S6K; experiment: Immunoblot of kidney lysates, early onset ADPKD mice: pP70S6K (mTOR pathway); format: in vivo, mouse; conditions: bempedoic acid 30 mg/kg/d alone or in combination with tolvaptan; P22
Method: as §1, §2

[7] = system: phosphorylated ERK; experiment: Immunoblot of kidney lysates, early onset ADPKD mice: pERK; format: in vivo, mouse; conditions: bempedoic acid 30 mg/kg/d alone or in combination with tolvaptan; P22
Method: as §1, §2

[8] = system: total neutrophil gelatinase-associated lipocalin (NGAL); experiment: Immunoblot of kidney lysates, early onset ADPKD mice: NGAL; format: in vivo, mouse; conditions: P22
Method: as §1, §2

[9] = system: total KIM-1; experiment: Immunoblot of kidney lysates, early onset ADPKD mice: KIM-1; format: in vivo, mouse; conditions: bempedoic acid 30 mg/kg/d; P22
Method: as §1, §2

[10] = system: pACLY; experiment: Immunoblot of liver lysates, early onset ADPKD mice: pACLY; format: in vivo, mouse; conditions: bempedoic acid 30 mg/kg/d alone or in combination with tolvaptan 100 mg/kg/d; P22
Method: as §1
(§3) Liver sample lysates were prepared in buffer and separated using SDS-PAGE. Separated proteins were then electrophoretically transferred to membranes. Nonspecific binding was blocked and membranes were probed with antibodies against pACLY, pThr172AMPKα, PGC1alpha, FATP2, pACC, and cleaved Cas3. Membranes were incubated with appropriate detection antibodies and relative signal intensity determined. Target protein levels were normalized to total protein levels.

[11] = system: FATP2; experiment: Immunoblot of liver lysates, early onset ADPKD mice: FATP2; format: in vivo, mouse; conditions: bempedoic acid 30 mg/kg/d alone or in combination with tolvaptan 100 mg/kg/d; P22
Method: as §1, §3

[12] = system: pThr172AMPKα; experiment: Immunoblot of liver lysates, early onset ADPKD mice: pAMPK; format: in vivo, mouse; conditions: bempedoic acid 30 mg/kg/d; P22
Method: as §1, §3

[13] = system: pACC; experiment: Immunoblot of liver lysates, early onset ADPKD mice: pACC; format: in vivo, mouse; conditions: bempedoic acid 30 mg/kg/d; P22
Method: as §1, §3

[14] = system: late onset, slowly developing ADPKD mouse model Pkd1fl/fl;Pax8-rtTA;Tet-On-Cre; experiment: Late onset, slowly developing ADPKD mouse model: kidney weight to body weight; format: in vivo; conditions: bempedoic acid 30 mg/kg/d mixed with food from P30
Method: The example describes characterization of the late onset, slowly developing ADPKD mouse model Pkd1fl/fl;Pax8-rtTA;Tet-On-Cre when treated with bempedoic acid.
Doxycycline was administered intraperitoneally (50 mg/kg/day) on postnatal days 27-29 (P27-P29) and again on P43 and P57 to induce later Pkd1 knockout and slowly progressive PKD in the Cre+ mice. Mice were then sacrificed at […], P60, and P120 for measurements of total kidney weight to body weight ratios.

With `CN(C)C(=N)N=C(N)N` [metformin] the “cyst area relative to control” value ([1]; 500 μM metformin for the last 3 days) was “significantly reduced cyst area” and the “cyst area relative to control” value ([2]; 500 μM metformin alone for the last 3 days) was “significantly reduced cyst area”.

In the case of `CC(C)(CCCCCC(O)CCCCCC(C)(C)C(=O)O)C(=O)O` [Bempedoic acid], the “cyst area relative to control” value ([1]; 100 μM ETC-1002 for the last 3 days) is reported as “significantly reduced cyst area”, the “cyst area relative to control” value ([2]; 100 μM ETC-1002 alone for the last 3 days) is reported as “significantly reduced cyst area” and the “total kidney weight to body weight ratio” value ([3]; bempedoic acid 30 mg/kg/d oral gavage P12-P21, P22, vehicle 11.9±1.2%) is reported as 6.9±0.4%. For the same molecule, the BUN ([3]; bempedoic acid 30 mg/kg/d oral gavage P12-P21, P22) was 59 ± 13 mg/dL, the “kidney size (H&E stains of kidney sections) compared to vehicle control” value [3] was “marked reduction in kidney size” and the “ACLY activity (pACLY relative to total protein), kidney lysate” value [4] was “reduced ACLY”. The “AMPK activity (pThr172 relative to total protein), kidney lysate” value [5] was “stimulated AMPK”, the “mTOR signaling pathway (pP70S6K relative to total protein), kidney lysate” value [6] was “inhibited” and the “ERK signaling pathway (pERK relative to total protein), kidney lysate” value [7] was “inhibited”. For the same molecule, the “NGAL signaling pathway (NGAL relative to total protein), kidney lysate” value ([8]; bempedoic acid 30 mg/kg/d alone or in combination with tolvaptan) was “inhibited”, the “reduction of NGAL expression compared with reduction of KIM-1 expression, kidney lysate” value ([8]; bempedoic acid 30 mg/kg/d) was “to a lesser extent” and the “reduction of KIM-1 expression (marker of kidney injury), kidney lysate” value [9] was over 70%. For the same molecule, the “pACLY (activation marker) relative to total protein, liver lysate” value [10] was “inhibited pACLY”, the “FATP2 expression relative to total protein, liver lysate” value [11] was “increased FATP2 expression” and the “AMPK activity (pThr172 relative to total protein), liver lysate” value [12] was “increased AMPK activity”. For the same molecule, the “phosphorylation of AMPK target ACC in liver tissue” value [13] was “promoted phosphorylation”, the “total kidney weight to body weight ratio” value ([14]; P60, male mice) was “significantly reduced total kidney weight to body weight ratio” and the “total kidney weight to body weight ratio” value ([14]; P120, male and female mice) was “a trend that was also observed”.

In the case of `Cc1ccccc1C(=O)Nc1ccc(C(=O)N2CCCC(O)c3cc(Cl)ccc32)c(C)c1` (centres unmarked) [tolvaptan, Tolvaptan], the “kidney size (H&E stains of kidney sections) compared to vehicle control” value [3] is reported as “marked reduction in kidney size”, the BUN ([3]; tolvaptan 30 mg/kg/d oral gavage P12-P21, P22) is reported as 68 ± 8 mg/dL and the “total kidney weight to body weight ratio” value ([3]; tolvaptan 30 mg/kg/d oral gavage P12-P21, P22, vs vehicle) is reported as “reduced total kidney weight to body weight ratio”. The “total kidney weight to body weight ratio” value ([3]; tolvaptan 100 mg/kg/d oral gavage P12-P21, P22, vehicle 11.9±1.2%) was 7.8±1.0% and the BUN ([3]; tolvaptan 100 mg/kg/d oral gavage P12-P21, P22) was 35 ± 7 mg/dL.

For `O=C(O)C[C@@]1(O)C[C@@H](CCCCCCc2ccc(Cl)cc2Cl)OC1=O` [SB-204990], the “cyst area relative to control” value ([1]; 30 μM SB-204990 for the last 3 days) was “significantly reduced cyst area”.
